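Grown in 96-well plates, cells were treated for 48 hours with each compound at five concentrations. Insufficient inhibition: endpoint recorded as highest concentration tested. Abbreviation: GI50, concentration required for 50% inhibition of growth.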 Active and inactive are the calls of the source. No stated cut-off is given here; in the data, active = GI50 up to about 1.1 µM and inactive = higher.
Experiments:
Test in all cases: inhibition of tumour cell growth, NCI panel, 48 h
[1] = system: SN12C
[2] = system: MDA-MB-435
[3] = system: TK-10
[4] = system: HT-29
[5] = system: BT-549
[6] = system: DU-145
[7] = system: SNB-75
[8] = system: MDA-N
[9] = system: HOP-92
[10] = system: Hs-578T
[11] = system: A498
[12] = system: NCI-H226
[13] = system: HCC 2998
[14] = system: RPMI-8226
[15] = system: SK-MEL-28
[16] = system: HOP-62
[17] = system: SNB-19
[18] = system: SF-268
[19] = system: OVCAR-5
[20] = system: RXF 393
[21] = system: COLO 205
[22] = system: OVCAR-3
[23] = system: NCI-H23
[24] = system: ACHN
[25] = system: HCT-116
[26] = system: SK-OV-3
[27] = system: NCI/ADR-RES
[28] = system: SW-620
[29] = system: KM12
[30] = system: SK-MEL-5
[31] = system: Malme-3M
[32] = system: MOLT-4
[33] = system: OVCAR-8
[34] = system: MCF7
[35] = system: HL-60
[36] = system: LOX IMVI
[37] = system: UACC-62
[38] = system: 786-0
[39] = system: CAKI-1
[40] = system: NCI-H522
[41] = system: UO-31
[42] = system: M14
[43] = system: SF-295
[44] = system: SK-MEL-2
[45] = system: MDA-MB-231
[46] = system: CCRF-CEM
[47] = system: NCI-H460
[48] = system: SF-539
[49] = system: PC-3
[50] = system: U-251
[51] = system: A549
[52] = system: EKVX
[53] = system: OVCAR-4
[54] = system: IGROV-1
[55] = system: K562
[56] = system: UACC-257
[57] = system: SR
[58] = system: HCT-15

Measured: GI50

CN(C)c1ccc(/C=C2\N=C(N/N=C/c3ccccc3O)NC2=O)cc1
inactive: [1] 36.7 µM | [2] 32.8 µM | [3] 25.6 µM | [4] 34.3 µM | [5] 44.7 µM | [6] 32.3 µM | [7] 31.2 µM | [8] 39.1 µM | [9] 24 µM | [10] 68.9 µM | [11] 25.1 µM | [12] 20.5 µM | [13] 36.9 µM | [14] 38.6 µM | [15] 25.1 µM | [16] 22.5 µM | [17] 41.9 µM | [18] 34.4 µM | [19] 49.9 µM | [20] 23.9 µM | [21] 31.3 µM

CCOC(=O)C(=[N+]=[N-])C(=O)Nc1nn2nnnc2c2ccccc12
inactive: [1] > 100 µM | [2] > 100 µM | [22] > 100 µM | [23] > 100 µM | [24] > 100 µM | [25] > 100 µM | [26] > 100 µM | [27] > 100 µM | [4] > 100 µM | [28] > 100 µM | [29] > 100 µM | [30] > 100 µM | [31] > 100 µM | [5] > 100 µM | [32] > 100 µM | [33] > 100 µM | [34] > 100 µM | [35] > 100 µM | [6] > 100 µM | [36] > 100 µM | [37] > 100 µM | [38] > 100 µM | [39] > 100 µM | [40] > 100 µM | [41] > 100 µM | [42] > 100 µM | [43] > 100 µM | [7] 33.8 µM | [8] > 100 µM | [44] > 100 µM | [9] > 100 µM | [45] > 100 µM | [46] > 100 µM | [11] > 100 µM | [12] > 100 µM | [47] > 100 µM | [13] > 100 µM | [48] > 100 µM | [49] > 100 µM | [14] > 100 µM | [15] > 100 µM | [50] > 100 µM | [16] > 100 µM | [51] > 100 µM | [52] > 100 µM | [17] > 100 µM | [53] > 100 µM | [54] > 100 µM | [55] > 100 µM | [56] > 100 µM | [57] > 100 µM | [19] > 100 µM | [20] > 100 µM | [21] > 100 µM

COc1c(C2(c3ccc(F)cc3)SCCCS2)c(=O)c1=O
> 100 µM: [58]
inactive: [1] > 100 µM | [2] > 100 µM | [22] > 100 µM | [3] > 100 µM | [23] > 100 µM | [24] > 100 µM | [25] > 100 µM | [26] > 100 µM | [27] > 100 µM | [4] > 100 µM | [28] > 100 µM | [29] > 100 µM | [30] > 100 µM | [31] > 100 µM | [5] > 100 µM | [32] > 100 µM | [33] > 100 µM | [34] > 100 µM | [35] 31.6 µM | [6] > 100 µM | [36] > 100 µM | [37] > 100 µM | [38] > 100 µM | [39] > 100 µM | [41] > 100 µM | [42] > 100 µM | [43] > 100 µM | [7] > 100 µM | [8] > 100 µM | [44] > 100 µM | [9] > 100 µM | [10] > 100 µM | [45] > 100 µM | [46] > 100 µM | [12] > 100 µM | [47] > 100 µM | [13] > 100 µM | [48] > 100 µM | [49] > 100 µM | [14] > 100 µM | [15] > 100 µM | [50] > 100 µM | [16] > 100 µM | [51] > 100 µM | [52] > 100 µM | [17] > 100 µM | [53] > 100 µM | [18] > 100 µM | [55] > 100 µM | [56] > 100 µM | [19] > 100 µM | [20] > 100 µM | [21] > 100 µM

COc1ccc(O)c(/C=N/CCC/N=C/c2cc(OC)ccc2O)c1
18.1 µM: [58]
inactive: [1] 30 µM | [2] 22.6 µM | [22] 6.59 µM | [3] 34.9 µM | [23] 43.5 µM | [24] 24.7 µM | [25] 40.8 µM | [4] 37.5 µM | [28] 39 µM | [29] 13.8 µM | [31] 13.7 µM | [5] 23.1 µM | [32] 16.6 µM | [33] 15.7 µM | [34] 20.9 µM | [35] 1.21 µM | [6] 22 µM | [37] 33.1 µM | [38] 33.7 µM | [40] 46 µM | [41] 33.5 µM | [42] 37.2 µM | [43] 18.1 µM | [7] 18.3 µM | [8] 31.3 µM | [44] 31.6 µM | [9] 20.2 µM | [10] 24.5 µM | [45] 31.3 µM | [46] 3.8 µM | [11] 8.91 µM | [12] 27.4 µM | [47] 41.4 µM | [49] 24.5 µM | [14] 11.7 µM | [15] 46.2 µM | [50] 16.7 µM | [16] 52.1 µM | [51] 70.8 µM | [52] 20.2 µM | [17] 21.6 µM | [53] 21.8 µM | [54] 34.4 µM | [55] 10.9 µM | [56] 23.7 µM | [57] 14 µM | [19] 38.3 µM | [20] 25.6 µM

CCN(CCCOc1ccccc1)CCN(CC)CCCOc1ccccc1
inactive: [1] 20 µM | [2] 13 µM | [22] 14.8 µM | [3] 12.7 µM | [23] 18.8 µM | [24] 16.3 µM | [25] 11.7 µM | [27] 20 µM | [4] 7.59 µM | [28] 20.8 µM | [29] 12.2 µM | [30] 2.22 µM | [31] 15.8 µM | [5] 14.3 µM | [32] 2.57 µM | [33] 15.7 µM | [34] 30.8 µM | [35] 7.46 µM | [6] 10.9 µM | [36] 10.8 µM | [37] 14.2 µM | [38] 18.4 µM | [39] 16.4 µM | [40] 14.2 µM | [41] 10.2 µM | [42] 11.5 µM | [43] 15.6 µM | [7] 21.8 µM | [44] 17.9 µM | [10] 13.5 µM | [45] 16.1 µM | [12] 21.8 µM | [47] 8.38 µM | [13] 8.69 µM | [48] 10.7 µM | [49] 2.52 µM | [15] 15.1 µM | [50] 12.9 µM | [16] 20.4 µM | [51] 12.8 µM | [52] 12.7 µM | [17] 9.1 µM | [53] 18.6 µM | [18] 12.6 µM | [54] 10.9 µM | [55] 3.1 µM | [56] 16.2 µM | [57] 8.26 µM | [19] 17 µM | [20] 13.4 µM | [21] 5.86 µM
active: [46] 0.71 µM | [14] 0.249 µM
10.4 µM: [58]

From ChEMBL document CHEMBL1201862, “PubChem BioAssay data set” (2004)
